Results published in article PMC7782793, “Hydroxamic acid-modified peptide microarrays for profiling isozyme-selective interactions and inhibition of histone deacetylases” (Nature Communications, 2021).
Values joined by “and” are separate entries in the source; they are usually repeats but may differ in a detail not shown here. Identical values can stand only once. Marks after values point to notes of the source that are not given here. Non-standard residues stand in square brackets, D forms with d. Residues, ends and D or L forms follow the SMILES beside them. *: point of attachment. Asu = N[C@@H](CCCCCC(=O)O)C(=O)O; NHOH = ON*

Assays:
[1] = molecular target: T1, HDAC4 (Homo sapiens, UniProt P56524); experiment: HDAC inhibition assay (fluorogenic, Ac-Leu-Gly-Lys(Tfa)-AMC); type: biochemical; conditions: 2 internal replicates
T1 construct: purchased BPS Bioscience 50004

[2] = molecular target: T2, HDAC6 (Homo sapiens, UniProt Q9UBN7); experiment: HDAC inhibition assay (fluorogenic, Ac-Leu-Gly-Lys(Ac)-AMC); type: biochemical; conditions: HDAC6, replicates
T2 construct: HDAC6 (full length, BPS Bioscience, cat. #: 50056); purchased BPS Bioscience 50056
T2 sequence (Q9UBN7 1-1215): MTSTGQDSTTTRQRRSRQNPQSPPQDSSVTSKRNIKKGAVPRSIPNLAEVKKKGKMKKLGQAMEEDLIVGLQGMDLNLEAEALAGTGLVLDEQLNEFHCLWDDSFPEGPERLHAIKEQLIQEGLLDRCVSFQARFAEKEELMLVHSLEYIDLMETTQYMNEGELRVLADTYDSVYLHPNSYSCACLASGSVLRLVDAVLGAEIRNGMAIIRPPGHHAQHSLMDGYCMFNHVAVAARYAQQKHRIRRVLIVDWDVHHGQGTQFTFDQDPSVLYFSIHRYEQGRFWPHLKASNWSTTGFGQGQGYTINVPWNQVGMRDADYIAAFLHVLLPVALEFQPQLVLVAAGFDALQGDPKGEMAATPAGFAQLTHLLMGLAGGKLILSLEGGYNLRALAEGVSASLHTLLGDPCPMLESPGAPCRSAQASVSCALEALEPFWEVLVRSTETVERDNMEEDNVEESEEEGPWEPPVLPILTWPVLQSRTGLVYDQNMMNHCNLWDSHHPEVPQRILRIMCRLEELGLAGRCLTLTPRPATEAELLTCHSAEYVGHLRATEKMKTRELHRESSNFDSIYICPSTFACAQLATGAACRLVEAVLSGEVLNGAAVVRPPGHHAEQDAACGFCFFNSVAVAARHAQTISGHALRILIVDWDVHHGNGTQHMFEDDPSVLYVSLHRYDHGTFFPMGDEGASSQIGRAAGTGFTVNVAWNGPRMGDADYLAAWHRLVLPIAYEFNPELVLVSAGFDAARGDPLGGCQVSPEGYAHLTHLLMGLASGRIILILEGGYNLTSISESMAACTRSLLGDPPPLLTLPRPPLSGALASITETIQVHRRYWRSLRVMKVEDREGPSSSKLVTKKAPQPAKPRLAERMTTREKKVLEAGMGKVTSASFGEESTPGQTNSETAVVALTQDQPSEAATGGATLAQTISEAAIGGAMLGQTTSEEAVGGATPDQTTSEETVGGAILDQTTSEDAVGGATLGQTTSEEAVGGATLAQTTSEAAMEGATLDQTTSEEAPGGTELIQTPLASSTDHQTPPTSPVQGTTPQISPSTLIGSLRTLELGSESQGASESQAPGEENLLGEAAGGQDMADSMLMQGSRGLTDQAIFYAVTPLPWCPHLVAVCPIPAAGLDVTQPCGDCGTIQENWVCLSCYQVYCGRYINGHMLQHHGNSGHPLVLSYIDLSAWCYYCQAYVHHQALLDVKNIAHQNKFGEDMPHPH

[3] = molecular target: T3, HDAC1 (Homo sapiens, UniProt Q13547); experiment: Recombinant HDAC µSPOT microarray binding assay;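 further: slides with spotted peptides incubated with six HDAC concentrations in HEPES buffer pH 7.4, spot intensities fitted by four-parameter logistic, EC50 as enzyme concentration giving half-maximal binding signal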
T3 construct: HDAC1 (full length, C-terminal His tag, C-terminal FLAG tag, BPS Bioscience, cat. #: 50051); FLAG (C); purchased BPS Bioscience 50051

[4] = molecular target: T3, HDAC1; experiment: HDAC inhibition assay (fluorogenic, Ac-Leu-Gly-Lys(Ac)-AMC); type: biochemical; conditions: for HDAC1 dose-response data (relative enzyme activity), Fig. 6 + S. Fig. 10: duplicate columns
[5] = molecular target: T4, HDAC2 (Homo sapiens, UniProt Q92769); experiment: as above; type: biochemical; conditions: for HDAC2 dose-response data (relative enzyme activity), Fig. 6 + S. Fig. 10: duplicate columns
T4 construct: HDAC2 (full length, C-terminal His tag, BPS Bioscience, cat. #: 50002); purchased BPS Bioscience 50002

[6] = molecular target: T5, HDAC3/NCoR2 (Homo sapiens, UniProt O15379); experiment: Recombinant HDAC µSPOT microarray binding assay;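 further: peptide spots on cellulose slides incubated with rising HDAC enzyme concentrations, imaged together, four-parameter logistic fit, EC50 is enzyme concentration giving half-maximal binding signal, two experiments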
T5 construct: HDAC3/NCoR2 (full length, C-terminal His tag, NCoR2 N-terminal GST tag); purchased BPS Bioscience 50003

[7] = molecular target: T5, HDAC3/NCoR2; experiment: HDAC inhibition assay (fluorogenic, Ac-Leu-Gly-Lys(Ac)-AMC); type: biochemical; conditions: for HDAC3 dose-response data (relative enzyme activity), Fig. 6 + S. Fig. 10: duplicate columns
[8] = molecular target: T6, HDAC8 (Homo sapiens, UniProt Q9BY41); experiment: Recombinant HDAC µSPOT microarray binding assay;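 further: peptide µSPOT slides incubated with varying HDAC enzyme concentrations, imaged signal intensity fitted by four-parameter variable-slope regression, EC50 is enzyme concentration giving half-maximal binding, pH 7.4 HEPES buffer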
T6 construct: HDAC8 (full length, C-terminal His tag, BPS Bioscience, cat. #: 50008); purchased BPS Bioscience 50008
T6 sequence (Q9BY41 1-377): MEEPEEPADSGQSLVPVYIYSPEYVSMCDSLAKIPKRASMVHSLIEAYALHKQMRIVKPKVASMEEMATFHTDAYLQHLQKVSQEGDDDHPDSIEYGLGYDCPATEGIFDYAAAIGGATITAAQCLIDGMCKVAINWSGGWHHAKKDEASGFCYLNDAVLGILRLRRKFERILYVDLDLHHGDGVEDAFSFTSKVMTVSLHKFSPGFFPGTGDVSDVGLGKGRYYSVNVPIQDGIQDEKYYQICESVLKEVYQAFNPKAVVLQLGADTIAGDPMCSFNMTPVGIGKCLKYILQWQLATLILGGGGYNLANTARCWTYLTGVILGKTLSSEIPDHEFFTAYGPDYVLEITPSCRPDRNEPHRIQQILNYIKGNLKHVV

[9] = tested on: HDACs 1‒3 and 8; experiment: HDAC inhibition assays, statements across several class I isozymes; type: biochemical, human; conditions: across the HDACs named in the sentence
[10] = log[inhibitor(M)] -10,5850266520292*, whole line marked with asterisks

T5 sequence (O15379 whole entry): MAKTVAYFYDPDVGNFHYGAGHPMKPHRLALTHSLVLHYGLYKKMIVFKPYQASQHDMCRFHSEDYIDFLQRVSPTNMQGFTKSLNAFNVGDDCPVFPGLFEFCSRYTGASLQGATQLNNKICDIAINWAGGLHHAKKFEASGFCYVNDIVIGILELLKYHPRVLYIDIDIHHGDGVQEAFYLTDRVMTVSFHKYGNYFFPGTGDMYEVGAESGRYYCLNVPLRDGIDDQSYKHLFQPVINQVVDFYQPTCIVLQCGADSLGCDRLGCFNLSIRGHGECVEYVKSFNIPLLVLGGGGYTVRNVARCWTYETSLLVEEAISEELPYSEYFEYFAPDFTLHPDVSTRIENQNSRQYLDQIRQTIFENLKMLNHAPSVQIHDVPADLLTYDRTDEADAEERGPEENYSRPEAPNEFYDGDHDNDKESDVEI
T5 sequence (Q9Y618 389-480 partner limits assumed): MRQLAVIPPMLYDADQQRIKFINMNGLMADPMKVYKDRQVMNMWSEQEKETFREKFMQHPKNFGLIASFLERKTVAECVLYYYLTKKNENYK
T3 sequence (Q13547 whole entry): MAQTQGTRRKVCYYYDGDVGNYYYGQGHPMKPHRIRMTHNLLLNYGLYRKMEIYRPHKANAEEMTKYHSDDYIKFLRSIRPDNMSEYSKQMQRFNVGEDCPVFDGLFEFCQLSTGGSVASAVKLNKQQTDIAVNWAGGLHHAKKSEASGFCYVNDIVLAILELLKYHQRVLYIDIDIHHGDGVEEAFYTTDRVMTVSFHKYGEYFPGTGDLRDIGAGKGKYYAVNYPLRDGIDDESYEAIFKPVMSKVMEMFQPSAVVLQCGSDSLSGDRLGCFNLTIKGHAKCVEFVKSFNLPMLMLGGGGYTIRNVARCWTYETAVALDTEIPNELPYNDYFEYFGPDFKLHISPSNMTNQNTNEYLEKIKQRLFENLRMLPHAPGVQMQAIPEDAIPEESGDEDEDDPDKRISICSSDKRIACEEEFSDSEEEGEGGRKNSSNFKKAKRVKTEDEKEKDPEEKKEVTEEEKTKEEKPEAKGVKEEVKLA
T4 sequence (Q92769 whole entry): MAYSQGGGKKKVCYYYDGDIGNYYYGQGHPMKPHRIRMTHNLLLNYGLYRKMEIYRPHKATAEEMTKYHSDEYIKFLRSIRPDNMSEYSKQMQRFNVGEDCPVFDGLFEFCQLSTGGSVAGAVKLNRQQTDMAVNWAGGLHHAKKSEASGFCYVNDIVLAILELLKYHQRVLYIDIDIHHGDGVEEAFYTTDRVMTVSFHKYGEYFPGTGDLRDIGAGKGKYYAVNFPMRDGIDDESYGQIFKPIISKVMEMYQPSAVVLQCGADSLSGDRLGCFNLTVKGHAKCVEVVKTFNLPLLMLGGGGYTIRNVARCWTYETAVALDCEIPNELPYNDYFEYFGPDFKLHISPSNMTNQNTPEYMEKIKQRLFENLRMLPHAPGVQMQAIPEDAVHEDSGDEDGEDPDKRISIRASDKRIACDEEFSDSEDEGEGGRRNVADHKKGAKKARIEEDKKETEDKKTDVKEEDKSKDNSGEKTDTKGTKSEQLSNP
T1 sequence (P56524 627-1084): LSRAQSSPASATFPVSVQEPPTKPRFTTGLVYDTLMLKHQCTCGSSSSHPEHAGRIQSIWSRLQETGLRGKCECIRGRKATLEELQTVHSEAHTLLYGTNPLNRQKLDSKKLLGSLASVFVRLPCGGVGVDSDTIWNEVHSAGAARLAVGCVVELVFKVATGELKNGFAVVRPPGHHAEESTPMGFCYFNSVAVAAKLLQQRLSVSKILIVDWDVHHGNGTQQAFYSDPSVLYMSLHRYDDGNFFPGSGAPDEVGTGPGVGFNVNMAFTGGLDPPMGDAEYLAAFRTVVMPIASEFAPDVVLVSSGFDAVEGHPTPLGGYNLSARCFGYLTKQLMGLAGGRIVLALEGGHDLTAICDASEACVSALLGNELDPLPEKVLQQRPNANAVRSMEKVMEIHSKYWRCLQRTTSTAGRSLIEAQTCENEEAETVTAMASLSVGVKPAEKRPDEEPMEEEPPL

## CC(=O)N1CCC[C@H]1C(=O)N[C@@H](CCCNC(=N)N)C(=O)N[C@@H](CCCCN)C(=O)N[C@@H](CCC(N)=O)C(=O)N[C@@H](CC(C)C)C(=O)N[C@@H](C)C(=O)N[C@H](C(=O)N[C@@H](CCCCN)C(=O)N[C@@H](C)C(=O)N[C@@H](C)C(=O)N[C@@H](CCCNC(=N)N)C(=O)N[C@@H](CCCCCC(=O)NO)C(=O)N[C@@H](CO)C(=O)N[C@@H](C)C(=O)N1CCC[C@H]1C(=O)N[C@@H](C)C(=O)N[C@@H](Cc1c[nH]c2ccccc12)C(N)=O)[C@@H](C)O [14a] (Ac-PRKQLATKAAR[Asu](NHOH)SAPAW-NH2)
[1]; inhibitor 5 µM
  residual enzymatic activity relative to control wells: 82.79
[1]; inhibitor 5 µM, read-out: residual enzymatic activity relative to control wells
  remaining activity at 5 µM: 91.8%
[1]; inhibitor 50 µM
  residual enzymatic activity relative to control wells: 33.99
[1]; inhibitor 50 µM, read-out: residual enzymatic activity relative to control wells
  remaining activity at 50 µM: 41.7%
[2]; log[inhibitor(M)] -4.30103
  residual enzymatic activity relative to control wells: 0.91 and 1.08
[2]; log[inhibitor(M)] -5
  residual enzymatic activity relative to control wells: 1.61 and 1.34
[2]; log[inhibitor(M)] -5.69897
  residual enzymatic activity relative to control wells: 2.69 and 2.19
[2]; log[inhibitor(M)] -6.39794
  residual enzymatic activity relative to control wells: 9.28 and 7.48
[2]; log[inhibitor(M)] -7.09691
  residual enzymatic activity relative to control wells: 29.33 and 24.37
[2]; log[inhibitor(M)] -7.79588
  residual enzymatic activity relative to control wells: 61.34 and 57.66
[2]; log[inhibitor(M)] -8.49485
  residual enzymatic activity relative to control wells: 91.27 and 83.89
[2]; log[inhibitor(M)] -9.19382
  residual enzymatic activity relative to control wells: 101.6 and 95.57
[2]; log[inhibitor(M)] -9.89279
  residual enzymatic activity relative to control wells: 101.56 and 98.95
[2]; log[inhibitor(M)] -10.585
  residual enzymatic activity relative to control wells: 102,36* and 98,9*
[3]
  EC50: 9.12 nM
[4]
  Ki: 24.7 ± 0.5 nM
[4]; log[inhibitor(M)] -5
  HDAC1 dose-response data (relative enzyme activity), Fig. 6 + S. Fig. 10: 15.0147 and 10.9187
[4]; log[inhibitor(M)] -5.69897
  HDAC1 dose-response data (relative enzyme activity), Fig. 6 + S. Fig. 10: 14.0922 and 20.0402
[4]; log[inhibitor(M)] -6.39794
  HDAC1 dose-response data (relative enzyme activity), Fig. 6 + S. Fig. 10: 32.9512 and 39.8845
[4]; log[inhibitor(M)] -7.79588
  HDAC1 dose-response data (relative enzyme activity), Fig. 6 + S. Fig. 10: 81.8715 and 100.09
[4]; log[inhibitor(M)] -8.49485
  HDAC1 dose-response data (relative enzyme activity), Fig. 6 + S. Fig. 10: 94.0176 and 111.23
[4]; log[inhibitor(M)] -9.19382
  HDAC1 dose-response data (relative enzyme activity), Fig. 6 + S. Fig. 10: 106.697 and 107.189
[4]; log[inhibitor(M)] -9.89279
  HDAC1 dose-response data (relative enzyme activity), Fig. 6 + S. Fig. 10: 102.41 and 107.234
[4]; [10]
  HDAC1 dose-response data (relative enzyme activity), Fig. 6 + S. Fig. 10: 103,6577* and 97,95181*
[5]; log[inhibitor(M)] -5
  HDAC2 dose-response data (relative enzyme activity), Fig. 6 + S. Fig. 10: 11.6652 and 17.3045
[5]; log[inhibitor(M)] -5.69897
  HDAC2 dose-response data (relative enzyme activity), Fig. 6 + S. Fig. 10: 34.222 and 35.4537
[5]; log[inhibitor(M)] -7.79588
  HDAC2 dose-response data (relative enzyme activity), Fig. 6 + S. Fig. 10: 103.08 and 94.3091
[5]; [10]
  HDAC2 dose-response data (relative enzyme activity), Fig. 6 + S. Fig. 10: 107,4969* and 95,99841*
[5]; resynthesized peptide in solution, Cheng-Prusoff, n = 2
  Ki: 98 ± 1 nM
[6]
  EC50: 2.95 nM
[7]
  Ki: 16.8 ± 0.2 nM
[7]; log[inhibitor(M)] -4.30103
  HDAC3 dose-response data (relative enzyme activity), Fig. 6 + S. Fig. 10: 0.8181 and 0.573
[7]; log[inhibitor(M)] -5
  HDAC3 dose-response data (relative enzyme activity), Fig. 6 + S. Fig. 10: 3.641 and 2.7786
[7]; log[inhibitor(M)] -5.69897
  HDAC3 dose-response data (relative enzyme activity), Fig. 6 + S. Fig. 10: 13.6613 and 10.1867
[7]; log[inhibitor(M)] -6.39794
  HDAC3 dose-response data (relative enzyme activity), Fig. 6 + S. Fig. 10: 32.1253 and 23.5469
[7]; log[inhibitor(M)] -7.09691
  HDAC3 dose-response data (relative enzyme activity), Fig. 6 + S. Fig. 10: 54.9619 and 43.4084
[7]; log[inhibitor(M)] -7.79588
  HDAC3 dose-response data (relative enzyme activity), Fig. 6 + S. Fig. 10: 82.3244 and 70.9683
[7]; log[inhibitor(M)] -8.49485
  HDAC3 dose-response data (relative enzyme activity), Fig. 6 + S. Fig. 10: 99.6485 and 88.5218
[7]; log[inhibitor(M)] -9.19382
  HDAC3 dose-response data (relative enzyme activity), Fig. 6 + S. Fig. 10: 108.712 and 95.7391
[7]; log[inhibitor(M)] -9.89279
  HDAC3 dose-response data (relative enzyme activity), Fig. 6 + S. Fig. 10: 105.572 and 99.3991
[7]; [10]
  HDAC3 dose-response data (relative enzyme activity), Fig. 6 + S. Fig. 10: 106,3724* and 79,46551*
[8]
  EC50: 3.02 nM
[9]
  inhibitory potency in words: inhibited all four isozymes with similar potency
